Experimental data as given in BindingDB's records for doi:10.1021/jm970615f (Parke-Davis Pharmaceutical Research, 1997).

Biological target: T1, Dimer of Gag-Pol polyprotein [489-587] (Human immunodeficiency virus 1, UniProt P12497)
T1 construct: 489-587
Assay: Protease Inhibition Assay
Procedure: For determination of IC50 values, HIV-1 protease was added to assay buffer containing inhibitor and the substrate (H-His-Lys-Ala-Arg-Val-Leu- (p-NO2) Phe-Glu-Ala-norleucine-Ser-NH2). The Leu- (p-NO2) Phe bond of the substrate was cleaved by the enzyme, and the substrate and products were separated by reversed-phase HPLC. Absorbance was measured at 220 nm, peak areas were determined, and percentage conversion to product was calculated.

| SMILES | IC50 | IC50 (pH 4.7, 37 °C) |
| --- | --- | --- |
| O=C1CC2(CCCc3ccccc32)OC(=O)C1SCCc1ccccc1 (stereo not drawn) [3,4-Dihydro-4-hydroxy-5-[(2-phenylethyl)thio]-spiro[naphthalene-1(2H),2-[2H]pyran]-6 (3 H)-one] | 1300 nM | – |
| O=C1CC2(CCCc3ccccc32)OC(=O)C1SCc1ccccc1 (stereo not drawn) [3,4-Dihydro-4-hydroxy-5-[(phenylmethyl)thio]spiro[naphthalene-1(2H),2-[2H]pyran]-6 (3 H)-one] | 2300 nM | – |
| O=C(O)CCC1(c2ccccc2)CC(=O)C(SCCc2ccccc2)C(=O)O1 (stereo not drawn) [3-(3,6-Dihydro-4-hydroxy-6-oxo-2-phenyl-5-[(2-phenylethyl)thio]-2H-pyran-2-yl)propanoic Acid] | – | 1200 nM |
| CCCCCC1(CCCCC)CC(=O)C(SCc2ccccc2)C(=O)O1 (stereo not drawn) [3-(Benzylsulfanyl)-4-hydroxy-6,6-dipentyl-5,6-dihydro-pyran-2-one] | 327 nM | – |
| CC(C)CC1(c2ccccc2)CC(=O)C(SCc2ccccc2)C(=O)O1 (stereo not drawn) [3-(benzylsulfanyl)-4-hydroxy-6-(2-methylpropyl)-6-phenyl-5,6-dihydro-2H-pyran-2-one] | – | 440 nM |
| CC(C)CCC1(c2ccccc2)CC(=O)C(SCc2ccccc2)C(=O)O1 (stereo not drawn) [3-(benzylsulfanyl)-4-hydroxy-6-(3-methylbutyl)-6-phenyl-5,6-dihydro-2H-pyran-2-one] | – | 98 nM |
| O=C1CC(CCCCO)(c2ccccc2)OC(=O)C1SCc1ccccc1 (stereo not drawn) [3-(benzylsulfanyl)-4-hydroxy-6-(4-hydroxybutyl)-6-phenyl-5,6-dihydro-2H-pyran-2-one] | 1260 nM | – |
| CC(C)CCCC1(c2ccccc2)CC(=O)C(SCc2ccccc2)C(=O)O1 (stereo not drawn) [3-(benzylsulfanyl)-4-hydroxy-6-(4-methylpentyl)-6-phenyl-5,6-dihydro-2H-pyran-2-one] | – | 183 nM |
| CCCCCC1(c2ccccc2)CC(=O)C(SCc2ccccc2)C(=O)O1 (stereo not drawn) [3-(benzylsulfanyl)-4-hydroxy-6-pentyl-6-phenyl-5,6-dihydro-2H-pyran-2-one] | – | 124 nM |
| O=C1CC(CCc2ccccc2)(c2ccccc2)OC(=O)C1SCc1ccccc1 (stereo not drawn) [3-(benzylsulfanyl)-4-hydroxy-6-phenyl-6-(2-phenylethyl)-5,6-dihydro-2H-pyran-2-one] | – | 60 nM |
| CCCCC1(c2ccccc2)CC(=O)C(SCc2ccccc2)C(=O)O1 (stereo not drawn) [3-(benzylsulfanyl)-6-butyl-4-hydroxy-6-phenyl-5,6-dihydro-2H-pyran-2-one] | – | 270 nM |
| CCCCCCC1(c2ccccc2)CC(=O)C(SCc2ccccc2)C(=O)O1 (stereo not drawn) [3-(benzylsulfanyl)-6-hexyl-4-hydroxy-6-phenyl-5,6-dihydro-2H-pyran-2-one] | – | 180 nM |
| O=C1CC(c2ccccc2)(c2ccccc2)OC(=O)C1Sc1ccccc1C1CCCCC1 (stereo not drawn) [3-[(2-Cyclohexylphenyl)sulfanyl]-5,6-dihydro-4-hydroxy-6,6-diphenyl-2H-pyran-2-one] | 127 nM | – |
| O=C1CC(CCc2ccccc2)(c2ccccc2)OC(=O)C1Sc1ccccc1C1CCCCC1 (stereo not drawn) [3-[(2-cyclohexylphenyl)sulfanyl]-4-hydroxy-6-phenyl-6-(2-phenylethyl)-5,6-dihydro-2H-pyran-2-one] | 32 nM | – |
| O=C1CC(c2ccccc2)(c2ccccc2)OC(=O)C1Sc1ccccc1C1CCCC1 (stereo not drawn) [3-[(2-cyclopentylphenyl)sulfanyl]-4-hydroxy-6,6-diphenyl-5,6-dihydro-2H-pyran-2-one] | 14 nM | – |
| CCC(C)c1ccccc1SC1C(=O)CC(c2ccccc2)(c2ccccc2)OC1=O (stereo not drawn) [3-[(2-sec-Butylphenyl)sulfanyl]-5,6-dihydro-4-hydroxy-6,6-diphenyl-2H-pyran-2-one] | 17 nM | – |
| CC(C)c1ccc(C(C)(C)C)c(SC2C(=O)CC(CCc3ccccc3)(c3ccccc3)OC2=O)c1 (stereo not drawn) [3-[(2-tert-Butyl-5-isopropylphenyl)sulfanyl]-5,6-dihydro-4-hydroxy-6-phenyl-6-(2-phenylethyl)-2H-pyran-2-one] | 47 nM | – |
| CC(C)(C)c1ccccc1SC1C(=O)CC(c2ccccc2)(c2ccccc2)OC1=O (stereo not drawn) [3-[(2-tert-Butylphenyl)sulfanyl]-5,6-dihydro-4-hydroxy-6,6-diphenyl-2H-pyran-2-one] | 49 nM | – |
| Cc1ccc(C(C)(C)C)c(SC2C(=O)CC(c3ccccc3)(c3ccccc3)OC2=O)c1 (stereo not drawn) [3-[(2-tert-butyl-5-methylphenyl)sulfanyl]-4-hydroxy-6,6-diphenyl-5,6-dihydro-2H-pyran-2-one] | 12 nM | – |
| CC(C)(C)c1ccccc1SC1C(=O)CC(CCc2ccccc2)(c2ccccc2)OC1=O (stereo not drawn) [3-[(2-tert-butylphenyl)sulfanyl]-4-hydroxy-6-phenyl-6-(2-phenylethyl)-5,6-dihydro-2H-pyran-2-one] | 3 nM | – |
| CC(C)c1ccc(C(C)C)c(SC2C(=O)CC(c3ccccc3)(c3ccccc3)OC2=O)c1 (stereo not drawn) [3-{[2,5-bis(propan-2-yl)phenyl]sulfanyl}-4-hydroxy-6,6-diphenyl-5,6-dihydro-2H-pyran-2-one] | 119 nM | – |
| CCC(C)c1ccccc1SC1C(=O)CC(CCc2ccccc2)(c2ccccc2)OC1=O (stereo not drawn) [3-{[2-(butan-2-yl)phenyl]sulfanyl}-4-hydroxy-6-phenyl-6-(2-phenylethyl)-5,6-dihydro-2H-pyran-2-one] | 10 nM | – |

| SMILES | IC50 | IC50 (pH 4.7, 37 °C) |
| --- | --- | --- |
| NC(=O)CCCC1(c2ccccc2)CC(=O)C(SCCc2ccccc2)C(=O)O1 (stereo not drawn) [4-(3,6-Dihydro-4-hydroxy-6-oxo-2-phenyl-5-[(phenylethyl)thio]-2H-pyran-2-yl)butyramide] | – | 1300 nM |
| Cc1ccc(C(C)(C)C)c(SC2C(=O)CC(CCc3ccccc3)(c3ccccc3)OC2=O)c1 (stereo not drawn) [4-Hydroxy-5,6-dihydropyrone deriv. 49] | 10 nM | – |
| Cc1ccccc1SC1C(=O)CC(c2ccccc2)(c2ccccc2)OC1=O (stereo not drawn) [4-hydroxy-3-[(2-methylphenyl)sulfanyl]-6,6-diphenyl-5,6-dihydro-2H-pyran-2-one] | 388 nM | – |
| Cc1ccccc1SC1C(=O)CC(CCc2ccccc2)(c2ccccc2)OC1=O (stereo not drawn) [4-hydroxy-3-[(2-methylphenyl)sulfanyl]-6-phenyl-6-(2-phenylethyl)-5,6-dihydro-2H-pyran-2-one] | 73 nM | – |
| Cc1ccc(C(C)C)c(SC2C(=O)CC(c3ccccc3)(c3ccccc3)OC2=O)c1 (stereo not drawn) [4-hydroxy-3-{[5-methyl-2-(propan-2-yl)phenyl]sulfanyl}-6,6-diphenyl-5,6-dihydro-2H-pyran-2-one] | 38 nM | – |
| Cc1ccc(C(C)C)c(SC2C(=O)CC(CCc3ccccc3)(c3ccccc3)OC2=O)c1 (stereo not drawn) [4-hydroxy-3-{[5-methyl-2-(propan-2-yl)phenyl]sulfanyl}-6-phenyl-6-(2-phenylethyl)-5,6-dihydro-2H-pyran-2-one] | 7 nM | – |
| CC(C)c1ccccc1SC1C(=O)CC(c2ccccc2)(c2ccccc2)OC1=O (stereo not drawn) [4-hydroxy-6,6-diphenyl-3-{[2-(propan-2-yl)phenyl]sulfanyl}-5,6-dihydro-2H-pyran-2-one] | 23 nM | – |
| CC(C)CCC1(c2ccccc2)CC(=O)C(SCCc2ccccc2)C(=O)O1 (stereo not drawn) [4-hydroxy-6-(3-methylbutyl)-6-phenyl-3-[(2-phenylethyl)sulfanyl]-5,6-dihydro-2H-pyran-2-one] | – | 96 nM |
| CC(C)CCCC1(c2ccccc2)CC(=O)C(SCCc2ccccc2)C(=O)O1 (stereo not drawn) [4-hydroxy-6-(4-methylpentyl)-6-phenyl-3-[(2-phenylethyl)sulfanyl]-5,6-dihydro-2H-pyran-2-one] | – | 155 nM |
| CCCCCC1(c2ccccc2)CC(=O)C(SCCc2ccccc2)C(=O)O1 (stereo not drawn) [4-hydroxy-6-pentyl-6-phenyl-3-[(2-phenylethyl)sulfanyl]-5,6-dihydro-2H-pyran-2-one] | – | 84 nM |
| CC(C)c1ccccc1SC1C(=O)CC(CCc2ccccc2)(c2ccccc2)OC1=O (stereo not drawn) [4-hydroxy-6-phenyl-6-(2-phenylethyl)-3-{[2-(propan-2-yl)phenyl]sulfanyl}-5,6-dihydro-2H-pyran-2-one] | 14 nM | – |
| O=C(O)CCCC1(c2ccccc2)CC(=O)C(SCCc2ccccc2)C(=O)O1 (stereo not drawn) [4-{4-hydroxy-6-oxo-2-phenyl-5-[(2-phenylethyl)sulfanyl]-3,6-dihydro-2H-pyran-2-yl}butanoic acid] | – | 270 nM |
| O=C1CC2(CCc3ccccc32)OC(=O)C1SCc1ccccc1 (stereo not drawn) [5'-(benzylsulfanyl)-4'-hydroxy-3',6',2,3-tetrahydrospiro[indene-1,2'-pyran]-6'-one] | 11800 nM | – |
| O=C1CC(c2ccccc2)(c2ccccc2)OC(=O)C1Sc1ccccc1 (stereo not drawn) [5,6-Dihydro-4-hydroxy-6,6-diphenyl-3-(phenylthio)-2H-pyran-2-one] | – | 110 nM |
| O=C1CC(c2ccccc2)(c2ccccc2)OC(=O)C1SCCc1ccccc1 (stereo not drawn) [5,6-Dihydro-4-hydroxy-6,6-diphenyl-3-[(2-phenylethyl)thio]-2H-pyran-2-one] | – | 152 nM |
| O=C1CC(c2ccccc2)(c2ccccc2)OC(=O)C1SCc1ccccc1 (stereo not drawn) [5,6-Dihydro-4-hydroxy-6,6-diphenyl-3-[(phenylmethyl)thio]-2H-pyran-2-one] | – | 262 nM |
| CC(C)CC1(c2ccccc2)CC(=O)C(SCCc2ccccc2)C(=O)O1 (stereo not drawn) [5,6-Dihydro-4-hydroxy-6-(2-methylpropyl)-6-phenyl-3-[(2-phenylethyl)thio]-2H-pyran-2-one] | – | 1200 nM |
| CC(C)CCC1(c2ccccc2)CC(=O)C(Sc2ccccc2)C(=O)O1 (stereo not drawn) [5,6-Dihydro-4-hydroxy-6-(3-methylbutyl)-6-phenyl-3-(phenylthio)-2H-pyran-2-one] | – | 1400 nM |
| CN(CC1(c2ccccc2)CC(=O)C(SCCc2ccccc2)C(=O)O1)c1ccccc1 (stereo not drawn) [5,6-Dihydro-4-hydroxy-6-[(methylphenylamino)methyl]-6-phenyl-3-[(2-phenylethyl)thio]-2H-pyran-2-one] | 2280 nM | – |
| O=C1CC(COc2ccccc2)(c2ccccc2)OC(=O)C1SCc1ccccc1 (stereo not drawn) [5,6-Dihydro-4-hydroxy-6-phenoxymethyl-6-phenyl-3-[(phenylmethyl)thio]-2H-pyran-2-one] | 172 nM | – |
| O=C1CC(c2ccccc2)OC(=O)C1SCCc1ccccc1 (stereo not drawn) [5,6-Dihydro-4-hydroxy-6-phenyl-3-[(2-phenylethyl)thio]-2H-pyran-2-one] | – | 2100 nM |
